{"source": "paper PMC6270099", "about": "“Synthesis, Biological Evaluation, and Pharmacokinetic Study of Novel Liguzinediol Prodrugs” (Molecules, 2013)", "system": "isolated Langendorff-perfused rat hearts", "assay": "Ex vivo Langendorff-perfused rat heart, cardiac performance", "settings": "for ∆% +dP/dtmax / ∆% LVDP / ∆% −dP/dtmax: increase vs. control; for LVDP: isolated rat heart, mean ± SD, n = 6", "description": "The cardiac contractility and safety of prodrugs 3–5 were evaluated on the myocardium in normal isolated rat hearts with LZDO as a positive control. Prodrugs 3–5 exerted positive inotropic effects in a dose-dependent manner. The increased rate in left ventricular developed pressure (LVDP, accepted as contractile force), +dP/dtmax (used as an index of contractility), the maximum rate of pressure decrease of the left ventricle ([…], used as an index of diastolic function) and the heart rate (HR, used as an index of heart muscle oxygen consumption) of these compounds vs. control are listed in Table 1.\nAll commercial reagents and solvents were used without further purification unless otherwise specified. Melting points were determined using a model Buchi B-450 apparatus. ESI-MS were recorded on a TOF mass spectrometer (Applies-Biosystem Mariner). IR spectra were acquired by using a THERMO IR spectrometer Model Nicolet-100. ^1H- and ^13C-NMR spectra (500/125 MHz) were recorded on a Bruker Advance 500 spectrophotometer. Mass spectra were recorded on a ZAB-HS mass spectrometer and are reported as m/z values. HPLC analysis was conducted on a Waters 2695 HPLC instrument equipped with a UV detector (model 2489). LZDO and prodrugs 3–5 were analysed by HPLC, and their purity was confirmed to be greater than 98.0%. In vitro metabolic stability analysis was conducted by a HPLC method, using stock standard solutions of LZDO and prodrugs that were prepared in water at a concentration of 30 mM. The positive inotropic effects on the myocardium of LZDO and prodrugs 3–5 in vitro were evaluated on Langendorff-perfused hearts isolated from normal Sprague-Dawley rats. A HPLC method was applied to measure the rat plasma concentrations of LZDO and prodrug 3 after intragastric administration of prodrug 3 in the rats.\nSprague-Dawley adult male rats weighing 260–320 g were anaesthetised by intraperitoneal administration of 20% urethane (1.2 g/kg). The hearts were quickly removed and placed into an ice-cold modified buffer until contractions ceased. The heart was cleaned of surrounding tissues, mounted on the aortic cannula of the Langendorff perfusion system apparatus, and perfused with oxygenated buffer (mM): NaCl 117, KCl 5.7, CaCl2 1.8, MgCl2 1.7, NaHCO3 4.4, NaH2PO4 1.5, HEPES 20 and glucose 11. The buffer was equilibrated with 95% O2 and 5% CO2 and adjusted to pH 7.4 with NaOH before it entered the heart. An epicardial electrogram was registered using two stainless steel electrodes, one attached to the apex of the heart and the other to the aortic cannula. To obtain an isovolumetrically beating preparation, a latex balloon filled with water and connected by a catheter to a transducer was inserted through the left atrium into the left ventricle and inflated to provide an end-diastolic pressure between 8 and 12 mm Hg. Before each experimental protocol was initiated, the isolated hearts were set at a mean arterial pressure of 60–80 mm Hg and allowed to stabilise at 37 °C for 40–60 min. The isolated rat hearts were then perfused in sequence with 1, 10, and 100 μM of LZDO and prodrugs 3–5 in each group. A RM6240B/C four channel physiological recording instrument (Chengdu Instrument Factory, Chengdu, China) was used for continuous recording of LVSP, LVEDP, HR (derived from electrogram), +dP/dtmax and −dP/dtmax throughout the experiments. The criteria for established stability were LVDP > 50 mmHg, +dP/dtmax > 1,600 mmHg·s^−1, heart rate > 180 beats·min^−1 and normal sinus rhythm. The hearts were not studied if they had weak contractility (+dP/dtmax < 1,600 mmHg·s^−1) and severe arrhythmia. Diastolic balloon pressure was maintained at 8 mmHg. LVDP was calculated as the difference between the systolic and diastolic pressures. The results are expressed as the mean value of hemodynamic variables (n = 6). Statistical analysis was performed using SPSS for Windows (version 13.0). Data were analyzed by One-way ANOVA. […]", "note": "Marks after values point to notes of the source that are not given here."}
{"smiles": "Cc1nc(CO)c(C)nc1CO", "note": "[1a, Liguzinediol]", "values": [{"measurement": "+dP/dtmax", "setting": "1 μM", "result": "1,836 ± 121 mmHg/s"}, {"measurement": "HR", "setting": "1 μM", "result": "186 ± 29", "unit": "beat·min^−1"}, {"measurement": "−dP/dtmax", "setting": "1 μM", "result": "−1,175 ± 125 mmHg/s"}, {"measurement": "∆% +dP/dtmax", "setting": "1 μM", "result": "9.4 ± 8.1", "unit": "%"}, {"measurement": "∆% LVDP", "setting": "1 μM", "result": "19.4 ± 11.0", "unit": "%"}, {"measurement": "∆% −dP/dtmax", "setting": "1 μM", "result": "11.1 ± 10.0", "unit": "%"}, {"measurement": "LVDP", "setting": "1 μM", "result": "60 ± 5 ^b mmHg"}, {"measurement": "+dP/dtmax", "setting": "10 μM", "result": "2,125 ± 242 ^bc mmHg/s"}, {"measurement": "HR", "setting": "10 μM", "result": "209 ± 21", "unit": "beat·min^−1"}, {"measurement": "−dP/dtmax", "setting": "10 μM", "result": "−1,371 ± 186 ^bc mmHg/s"}, {"measurement": "∆% +dP/dtmax", "setting": "10 μM", "result": "26.5 ± 13.4", "unit": "%"}, {"measurement": "∆% LVDP", "setting": "10 μM", "result": "45.6 ± 9.0", "unit": "%"}, {"measurement": "∆% −dP/dtmax", "setting": "10 μM", "result": "30.3 ± 0.3", "unit": "%"}, {"measurement": "LVDP", "setting": "10 μM", "result": "73 ± 4 ^bd mmHg"}, {"measurement": "+dP/dtmax", "setting": "100 μM", "result": "2,702 ± 287 ^bdf mmHg/s"}, {"measurement": "HR", "setting": "100 μM", "result": "193 ± 15", "unit": "beat·min^−1"}, {"measurement": "−dP/dtmax", "setting": "100 μM", "result": "−1,911 ± 200 ^bdf mmHg/s"}, {"measurement": "∆% +dP/dtmax", "setting": "100 μM", "result": "60.9 ± 17.3", "unit": "%"}, {"measurement": "∆% LVDP", "setting": "100 μM", "result": "76.3 ± 12.3", "unit": "%"}, {"measurement": "∆% −dP/dtmax", "setting": "100 μM", "result": "82.0 ± 27.9", "unit": "%"}, {"measurement": "LVDP", "setting": "100 μM", "result": "88 ± 3 ^bdf mmHg"}]}
